# US20030232851A1, “Viral treatment” (The Procter & Gamble Company, priority 1999, published 2003)
# Several values for one entry are separate records, joined by “and”; a condition that tells them apart may be missing. Identical values can stand only once.
# Test system: HIV-2 virus, CEMROD
# Experiment: In vitro screening against HIV-2 virus, CEMROD: reverse transcriptase activity
# Type: cell-based
# Parameters: Reverse Transcriptase Activity, samples 1-3 / Reverse Transcriptase Activity, average: unit not given here
# Experimental: A microtiter-based reveres transcriptase (RT) reaction is utilized (Buckheit et al (1991) AIDS Research and Human Retroviruses 7:295-302). Tritiated thymidine triphosphate (NEN)(TTP) is resuspended in distilled water at 5 Ci/ml. Poly rA and oligo dT are prepared as a stock solution which is kept at −20° C. The RT reaction buffer is prepared fresh on a daily basis and consists of 125 μl 1M EGTA, 125 μl water, 125 μl Triton X-100, 50 μl Tris (pH 7.4), 50 μl 1 MDDT, and 40 μl 1M MgCl2. These three solutions are mixed together in a ratio of 1 part TTP, 2.5 parts poly rA:oligo dT, 2.5 parts reaction buffer and 4 parts distilled water. Ten microliters of this reaction mixture is placed in a round bottom microtiter place and 15 μl of virus containing supernatant is added and mixed. The plate is incubated at 37° C. for 60 minutes. Following reaction, the reaction volume is spotted onto filter mats, washed 6 times for 5 minutes each in a 5% sodium phosphate buffer, 2 times for 1 minute each in distilled water, 2 times for 1 minute each in 70% ethanol, and then dried. The dried filter mat is placed in a plastic sample bag, Betaplate scintillation fluid is added and the bag is heat sealed. Incorporated radioactivity is quantified utilizing a Wallac Microbeta scintillation counter.
# [1] = Table 2 duplicate study, 0.32 μg/ml
# [2] = Table 2 duplicate study, 1 μg/ml
# [3] = Table 2 duplicate study, 1.0 μg/ml
# [4] = Table 2 duplicate study, 3.2 μg/ml
# [5] = Table 2 duplicate study, 32 μg/ml
# [6] = Table 2 duplicate study, 100 μg/ml
compound,measurement,setting,value
"c1csc(-c2nc3cccnc3[nH]2)c1 [2-(2-thienyl)-imidazolo [4,5-b]pyridine]","Reverse Transcriptase Activity, % virus control","Table 1, 0.32 μg/ml",119%
same,"Reverse Transcriptase Activity, average","Table 1, 0.32 μg/ml",5947
same,"Reverse Transcriptase Activity, samples 1-3","Table 1, 0.32 μg/ml",5878 and 5529 and 6435
same,"Reverse Transcriptase Activity, % virus control","Table 1, 1 μg/ml",103.8%
same,"Reverse Transcriptase Activity, average","Table 1, 1 μg/ml",5188
same,"Reverse Transcriptase Activity, samples 1-3","Table 1, 1 μg/ml",5002 and 5086 and 5476
same,"Reverse Transcriptase Activity, % virus control","Table 1, 1.0 μg/ml",48.1%
same,"Reverse Transcriptase Activity, average","Table 1, 1.0 μg/ml",2403
same,"Reverse Transcriptase Activity, samples 1-3","Table 1, 1.0 μg/ml",2812 and 2206 and 2190
same,"Reverse Transcriptase Activity, % virus control","Table 1, 3.2 μg/ml",84.0%
same,"Reverse Transcriptase Activity, average","Table 1, 3.2 μg/ml",4201
same,"Reverse Transcriptase Activity, samples 1-3","Table 1, 3.2 μg/ml",4005 and 4017 and 4580
same,"Reverse Transcriptase Activity, % virus control","Table 1, 32 μg/ml",8.1%
same,"Reverse Transcriptase Activity, average","Table 1, 32 μg/ml",407
same,"Reverse Transcriptase Activity, samples 1-3","Table 1, 32 μg/ml",382 and 390 and 450
same,"Reverse Transcriptase Activity, % virus control","Table 1, 100 μg/ml",1.4%
same,"Reverse Transcriptase Activity, average","Table 1, 100 μg/ml",72
same,"Reverse Transcriptase Activity, samples 1-3","Table 1, 100 μg/ml",80 and 68
same,"Reverse Transcriptase Activity, % virus control",[1],116.6%
same,"Reverse Transcriptase Activity, average",[1],5616
same,"Reverse Transcriptase Activity, samples 1-3",[1],4758 and 5725 and 6365
same,"Reverse Transcriptase Activity, % virus control",[2],121.1%
same,"Reverse Transcriptase Activity, average",[2],5833
same,"Reverse Transcriptase Activity, samples 1-3",[2],4251 and 6264 and 6984
same,"Reverse Transcriptase Activity, % virus control",[3],51.1%
same,"Reverse Transcriptase Activity, average",[3],2463
same,"Reverse Transcriptase Activity, samples 1-3",[3],2776 and 2531 and 2081
same,"Reverse Transcriptase Activity, % virus control",[4],100.0%
same,"Reverse Transcriptase Activity, average",[4],4819
same,"Reverse Transcriptase Activity, samples 1-3",[4],5050 and 5352 and 4054
same,"Reverse Transcriptase Activity, % virus control",[5],4.1%
same,"Reverse Transcriptase Activity, average",[5],197
same,"Reverse Transcriptase Activity, samples 1-3",[5],173 and 177 and 241
same,"Reverse Transcriptase Activity, % virus control",[6],0.9%
same,"Reverse Transcriptase Activity, average",[6],44
same,efficacy in treating HIV (in words),at the higher concentrations,shows efficacy
